Read-outs that look alike come from different tables or passages of the source.
Tests used:
[1] = in humans; literature; cited from earlier work
TSPO [2] = test: Competition binding assay against ^3H-PK11195 in human brain homogenate (HAB, MAB, LAB); conditions: for LAB:HAB affinity ratio: rs6971 polymorphism; for difference between HAB and LAB in individually calculated affinity values: unpaired t-test
Experimental: (§1) All studies using human tissue were conducted in accordance with the East of Scotland Research Ethics Service (Edinburgh Brain Bank, 11/ES/0022). […] To exclude sex dependent differences in TSPO binding (Fairweather et al.), only male samples were utilized in this study. Sample tissues were homogenized in 10× w/v buffer (50 mM Tris-Base, pH 7.4, 4° C.) before centrifugation (32,000 g, 10 min, 4° C.). Tissue pellets were then resuspended in 10× w/v buffer and centrifuged again before re-suspending them in buffer (2 mL). Samples were then assessed for protein concentration using the Bio-Rad protein assay (Bio-Rad, USA), aliquoted and stored at −80° C. until use.
(§2) Competition binding assays were carried out as previously reported (Blair et al. (Med. Chem. Commun.)). […] A concentration of 8 μM was used to determine non-specific binding for each ligand. Binding was terminated with the addition of 2 mL of ice cold buffer before being immediate filtered over a Whatman GF/B filters (Whatman, UK) pre-treated with 0.3% polyethylenimine (Sigma-Aldrich, USA) using a Brandel harvester (Brandel, USA). Filter paper was then removed, placed into 2.5 mL of Optiphase HiSafe 3 (Perkin Elmer, USA) and counted 48 hours later on a Hidex 300 SL (Hidex, Finland). […] All binding assays were performed in triplicate. GraphPad Prism version 6 (GraphPad Software, USA) was used to fit all binding affinity curves. A comparison of a one-site and two-site fitting was made using the least squares algorithm and model selection was compared using an F test. The null hypothesis (that one-site fitting as more suitable) was rejected if p<0.05. The mean % SB normalized to the minimum inhibition of each group (HAB, MAB or LAB) was used to determine whether a one-site or two-site fitting was appropriate, and to subsequently calculate LAB:HAB ratio. Affinity values (Ki) were calculated by fitting individual tissue samples based on the mean group fitting.

TSPO [3] = test: Competition binding assay against ^3H-PK11195 in human heart homogenate (HAB, MAB, LAB); conditions: for LAB:HAB ratio: rs6971 polymorphism; for difference between HAB and LAB in individually calculated affinity values: unpaired t-test
Experimental: as §1, §2

TSPO [4] = conditions: literature; cited from earlier work
TSPO [5] = conditions: literature (Ikawa et al.); cited from earlier work
[6] = Pharmacokinetic/Pharmacodynamic study of PK11195 tissue exposure; format: in vivo; conditions: Sprague-Dawley, rat, rats, mean±SEM, n=3, read-out: exposure level
TSPO [7] = target: TSPO (Homo sapiens, UniProt P30536); test: Competition binding assay against ^3H-PK11195 in human brain homogenate (HAB, MAB, LAB); set-up: other: human brain; other: human heart
Chain of TSPO (Homo sapiens, UniProt P30536) (P30536 whole entry): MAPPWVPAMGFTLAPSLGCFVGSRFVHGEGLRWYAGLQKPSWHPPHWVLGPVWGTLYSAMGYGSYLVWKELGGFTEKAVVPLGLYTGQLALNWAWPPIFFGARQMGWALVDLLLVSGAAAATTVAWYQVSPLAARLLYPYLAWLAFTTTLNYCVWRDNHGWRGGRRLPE
Experimental: as §1
Competition binding assays were carried out as previously reported (Blair et al. (Med. Chem. Commun.)). […] A concentration of 8 μM was used to determine non-specific binding for each ligand. Binding was terminated with the addition of 2 mL of ice cold buffer before being immediate filtered over a Whatman GF/B filters (Whatman, UK) pre-treated with 0.3% polyethylenimine (Sigma-Aldrich, USA) using a Brandel harvester (Brandel, USA). Filter paper was then removed, placed into 2.5 mL of Optiphase HiSafe 3 (Perkin Elmer, USA) and counted 48 hours later on a Hidex 300 SL (Hidex, Finland). […] Affinity values (Ki) were calculated by fitting individual tissue samples based on the mean group fitting.

Structure (SMILES)	LAB:HAB affinity ratio (TSPO [2])	difference between HAB and LAB in individually calculated affinity values (TSPO [2])	LAB:HAB ratio (TSPO [3])	difference between HAB and LAB in individually calculated affinity values (TSPO [3])	other results
CCC(C)N(C)C(=O)c1cc2ccccc2c(-c2ccccc2Cl)n1 (centres unmarked) [^11C-PK11195]	–	–	–	–	plasma free fraction [1]: 1-6%
COc1ccccc1CN(C(C)=O)c1cnccc1Oc1ccccc1 [PBR28]	49	significant difference	48	–	–
CC[C@@H](C)N([11CH3])C(=O)c1nc(-c2ccccc2Cl)c2ccccc2n1 [^11C-ER176]	–	–	–	–	LAB:HAB ratio in vitro (TSPO [4]): 1.3; LAB:HAB ratio in vivo (TSPO [5]): around 3
CCC(C)N(C)C(=O)c1cc2ccccc2c(-c2ccccc2Cl)n1 (centres unmarked) [PK11195]	–	no significant difference	–	no significant difference	concentration at 1 h ([6]; brain): 11 ± 1.99 ng/mL; concentration at 1 h ([6]; heart): 29.3 ± 3.93 ng/mL; concentration at 1 h ([6]; lungs): 38.9 ± 2.24 ng/mL
CCN(CC)C(=O)c1nc2ccccc2c(-c2ccccc2)c1CF [AB5186]	9	significant difference	7	–	–
CC[C@@H](C)N(C)C(=O)c1nc2ccccc2c(-c2ccccc2)c1CF [LW223, (R)-(N-sec-Butyl)-3-fluoromethyl-N-methyl-4-phenylquinoline-2-carboxamide]	1	no significant difference	1	no significant difference	mean affinity relative to PK11195 (TSPO [7]): 2 times; Ki (TSPO [7]; read-out: mean affinity (Ki)): 0.6 nM
